Test [1] deals with human full-length autophosphorylated recombinant HPK1 (Homo sapiens (Human), UniProt Q92918). In words: HPK1 biochemical enzyme assay (chelation-enhanced fluorescence, CHEF). The note with it: 0.5 nM HPK1, 45 μM ATP, Morrison fit. As for the experimental part: HPK1 Biochemical Enzyme Assay
HPK1 enzyme inhibition was measured by using the fluorescence-based chelation-enhanced fluorescence (CHEF) method (1), and by using a proprietary fluorescent peptide substrate, in which a cysteine residue is alkylated with a sulfonamido-oxine-based derivative to afford an amino acid termed C-Sox (CSx). […] Initial reaction velocities were determined by following the peptide fluorescence (λex=360 nm, λem=500 nm) at 30° C. for 15 min in a Tecan M1000 plate reader (Tecan Group Ltd., Mannedorf, Zurich, Switzerland).
Production of Autophosphorylated Full-Length Recombinant HPK1
The DNA sequence encoding full-length human HPK1 (Genbank NM_001042600.2) was synthesized at GenScript and contained a limited number of silent base changes to eliminate certain restriction endonuclease enzyme recognition sites, and fused to a DNA sequence encoding a Tobacco Etch Virus (TEV)-cleavable N-terminal polyhistidine purification tag. A recombinant baculovirus was prepared by using the Bac-to-Bac method (InVitrogen) and was used to infect 9 L of Sf21 insect cells. All purification steps were carried out at 4° C. Cells containing recombinant HPK1 were lysed in 50 mM HEPES-NaOH, pH 7.5, 250 mM NaCl, 1 mM tris(2-carboxyethyl)phosphine (TCEP), 10 μM leupeptin (Sigma), 10 μM E-64 (Sigma), and one ‘EDTA-free’ protease inhibitor tablet (Roche) per 75 mL buffer, centrifuged at 15,000×g for 1 h and the supernatant passed over 5 mL of ProBond IMAC resin (InVitrogen). After washing, HPK1 was eluted with 12.5 mL of 50 mM HEPES-NaOH, pH 7.5, 400 mM NaCl, 250 mM imidazole-HCl pH 7.5, 1 mM TCEP, 2 μM leupeptin, and 2 μM E-64. The eluted HPK1 was dialyzed overnight against 0.8 L of 50 mM HEPES-NaOH, pH 7.5, 400 mM NaCl, 20 mM imidazole-HCl pH 7.5, 1 mM TCEP, 2 μM leupeptin, 2 μM E-64, 2 mM ATP-NaOH pH 7.3, 5 mM MgCl2 and 1 mg TEV (this step simultaneously allows for reduction of the imidazole concentration in preparation for the subsequent reverse IMAC chromatography step, removal of the polyhistidine purification tag by TEV protease, and autophosphorylation of HPK1 in the presence of MgATP). The de-tagged and autophosphorylated HPK1 was adjusted to 40 mM imidazole-HCl, pH 7.5, and passed through a 10 mL column of ProBond resin similarly equilibrated. […] The peak fractions containing HPK1 were pooled and concentrated to approximately 2.5 mL by using a centrifugal concentrator (Millipore). The concentrated HPK1 was adjusted to 20% (v/v) glycerol by the addition of 50% (v/v) glycerol, resulting in a final formulation of 25 mM HEPES-NaOH pH 7.5, 250 mM NaCl, 0.25 mM TCEP and 20% (v/v) glycerol. […] Aliquots of the enzyme were flash frozen in liquid nitrogen and stored at −80° C. The final product contains a glycine-serine extension at the N-terminus of the full-length protein, as a result of the cloning strategy.

The subject of test [2] is Phospho-SLP-76 (Ser376) in Jurkat cells. Put plainly: Phospho-SLP-76 (Ser376) HTRF assay in anti-CD3 stimulated Jurkat cells. The class given is cell-based. The note with it: 30 min pre-treatment, anti-CD3 stimulation 15 min, read-out: pSLP76 IC50. The procedure: Cell Based Assays Phospho-SLP-76 (Ser376) Homogeneous Time Resolved Fluorescence (HTRF) Assay
Jurkat cells were seeded at 90,000 cells/well in 90 uL of RPMI1640 growth medium containing 10% FBS and incubated at 37° C. with 5% CO2 overnight. The following day, compounds were serially diluted from a 10 mM top dose for an 11-point 3-fold dilution curve in DMSO. Compounds were intermediately diluted 1:100 into growth media prior to diluting 1:10 on cells for final concentration 10 μM to 0.1 nM in 0.1% DMSO. After 30 min pre-treatment with compounds, the cells were stimulated using 200 μg/mL of F(ab)2 complexed anti-CD3 (clone UCTH1) for 15 min at 37° C. with 5% CO2. Stimulation was stopped with ice cold PBS and cells were harvested by centrifugation before lysis in Cisbio lysis buffer (Cisbio, Bedford, Mass.). Lysates were transferred to white, low-volume plates containing anti-phospho-SLP-76-Cryptate plus anti-phospho-SLP-76-d2 HTRF antibodies and incubated overnight at room temperature protected from light according to the manufacturer's protocol (Cisbio, Bedford, Mass.). HTRF was measured on a Perkin Elmer Envision and IC50 values were calculated by concentration-response curve fitting utilizing four-parameter nonlinear regression analyses.

Like-named read-outs stand apart in the source and are kept apart here.

Sequence of human full-length autophosphorylated recombinant HPK1 (Q92918 other isoform, or with tags, fused parts or gaps): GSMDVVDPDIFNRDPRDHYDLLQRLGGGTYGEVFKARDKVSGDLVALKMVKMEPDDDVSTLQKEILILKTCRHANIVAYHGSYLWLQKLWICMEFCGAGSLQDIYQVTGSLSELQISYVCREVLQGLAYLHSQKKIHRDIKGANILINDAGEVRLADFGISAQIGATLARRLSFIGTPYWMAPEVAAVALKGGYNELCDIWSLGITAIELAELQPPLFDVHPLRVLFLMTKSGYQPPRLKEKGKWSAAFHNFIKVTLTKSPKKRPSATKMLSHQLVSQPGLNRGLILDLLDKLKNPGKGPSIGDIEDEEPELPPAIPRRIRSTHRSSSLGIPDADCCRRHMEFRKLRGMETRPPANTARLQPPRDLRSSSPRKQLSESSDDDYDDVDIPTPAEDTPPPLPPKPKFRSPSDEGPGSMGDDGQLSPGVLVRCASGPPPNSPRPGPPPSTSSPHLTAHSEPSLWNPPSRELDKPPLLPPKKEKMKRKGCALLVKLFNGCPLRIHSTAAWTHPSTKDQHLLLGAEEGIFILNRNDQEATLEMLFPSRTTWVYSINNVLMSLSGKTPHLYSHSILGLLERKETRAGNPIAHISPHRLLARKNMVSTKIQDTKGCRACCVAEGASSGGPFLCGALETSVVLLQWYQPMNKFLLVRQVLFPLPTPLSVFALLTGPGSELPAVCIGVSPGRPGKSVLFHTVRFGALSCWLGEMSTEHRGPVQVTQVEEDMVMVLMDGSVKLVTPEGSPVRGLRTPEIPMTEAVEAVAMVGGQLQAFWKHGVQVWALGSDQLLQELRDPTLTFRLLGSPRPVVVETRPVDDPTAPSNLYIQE

With “4-[(1ξ)-1- aminoethyl]-2- {6-[(5R)-5- (fluoromethyl)- 6,7-dihydro- 5H-pyrrolo[2,1- c][1,2,4]triazol- 3-yl]pyridin-2- yl}-6-[(2R)-2- methylpyrroli- din-1-yl]-2,3- dihydro-1H- pyrrolo[3,4- c]pyridin-1-one [Example 18]”, the Ki (in general, the dissociation constant of the complex between target and ligand, obtained from inhibition or displacement) in test [1] was under 0.05 nM. For the same compound, in test [2], the IC50 (as a rule, the point on the concentration scale where inhibition reaches its midpoint) is 42 nM.
With `CC[C@@H]1CCc2nnc(-c3cccc(N4Cc5c(cc(N6CCC[C@H]6C)nc5[C@H](N)CC)C4=O)n3)n21` (single isomer, unassigned) [Example 13], in test [1], the Ki is under 0.07 nM. In addition, the IC50 in test [2] (Homo sapiens, Jurkat) came to 36 nM.
`CC[C@H]1CCc2nnc(-c3cccc(N4Cc5c(cc(N6CCC[C@H]6C)nc5[C@H](N)CC)C4=O)n3)n21` (single isomer, unassigned) [Example 14]: in test [1], the Ki came to 0.93 nM. The IC50 in test [2] (Homo sapiens, Jurkat) was 340 nM.
`CC[C@@H]1CCc2nnc(-c3cccc(N4Cc5c(cc(N6CCC[C@H]6C)nc5[C@@H](N)CC)C4=O)n3)n21` (single isomer, unassigned) [Example 16]: in test [1], the Ki came out at 0.093 nM. In addition, in test [2] (Homo sapiens, Jurkat), the IC50 was 487 nM.
Turning to `C[C@H]1CCc2nnc(-c3cccc(N4Cc5c(cc(N(C)C)nc5C(C)(C)N)C4=O)n3)n21` (single isomer, unassigned) [Example 22, 4-(2-aminopropan-2-yl)-6-(dimethyl-amino)-2-{6-[(5ξ)-5-methyl-6,7-dihydro-5H-pyrrolo[2,1-c][1,2,4]triazol-3-yl]pyridin-2-yl}-2,3-dihydro-1H-pyrrolo[3,4-c]pyridin-1-one], the Ki in test [1] was 0.08 nM. Moreover, in test [2] (Homo sapiens, Jurkat), the IC50 stood at 133 nM.
The like results for `C[C@@H]1CCc2nnc(-c3cccc(N4Cc5c(cc(N(C)C)nc5C(C)(C)N)C4=O)n3)n21` (single isomer, unassigned) [Example 23, 4-(2-aminopropan-2-yl)-6-(dimethyl-amino)-2-{6-[(5ξ)-5-methyl-6,7-dihydro-5H-pyrrolo[2,1-c][1,2,4]triazol-3-yl]pyridin-2-yl}-2,3-dihydro-1H-pyrrolo[3,4-c]pyridin-1-one] were, in that order, 5 nM and 329 nM.
Take `C[C@@H]1CCCN1c1cc2c(c([C@@H](C)N)n1)CN(c1cccc(-c3nnc4n3[C@H](C)CC4)n1)C2=O` (single isomer, unassigned) [Example 25]: the Ki in test [1] was under 0.05 nM. Moreover, the IC50 in test [2] (Homo sapiens, Jurkat) was 53 nM.
Take `C[C@H](N)c1nc(N2CCC[C@H]2C)cc2c1CN(c1cccc(-c3nnc4n3[C@@H](C)CC4)n1)C2=O` (single isomer, unassigned) [Example 26]: the Ki in test [1] was determined as 0.72 nM. Moreover, the half-inhibitory concentration (IC50) in test [2] (Homo sapiens, Jurkat) stood at 133 nM.
For `C[C@H](N)c1nc(N2CCC[C@H]2C)cc2c1CN(c1cccc(-c3nnc4n3[C@H](C)CC4)n1)C2=O` (single isomer, unassigned) [Example 27], in test [1], the Ki is under 0.05 nM. In test [2] (Homo sapiens, Jurkat), the half-maximal inhibitory concentration (IC50) worked out at 56 nM.
Turning to `COC[C@@H](N)c1nc(C2(C)CC2)cc2c1CN(c1cccc(-c3nnc4n3[C@@H](CF)CC4)n1)C2=O` (single isomer, unassigned) [Example 35], in test [1], the inhibitory constant (Ki) was 0.3 nM. Besides, in test [2] (Homo sapiens, Jurkat), the IC50 is 181 nM.
Consider `CC[C@@H](N)c1nc(N(C)C(C)C)cc2c1CN(c1cccc(-c3nnc4n3[C@@H](C)CC4)n1)C2=O` [Example 5], for which the 50% inhibitory concentration (IC50) in test [2] (Homo sapiens, Jurkat) is 31 nM.
As for `COC[C@@H](N)c1nc(C2(C)CC2)cc2c1CN(c1cccc(-c3nnc4n3[C@@H](C)CC4)n1)C2=O` [Example 6a, 4-[(1)-1-amino-2-methoxyethyl]-6-(1-methylcyclopropyl)-2-{6-[(5S)-5-methyl-6,7-dihydro-5H-pyrrolo[2,1-c][1,2,4]triazol-3-yl]pyridin-2-yl}-2,3-dihydro-1H-pyrrolo[3,4-c]pyridin-1-one], the IC50 in test [2] stood at 69 nM.
Consider `COC[C@@H](N)c1nc(C2(C)CC2)cc2c1CN(c1cccc(-c3nnc4n3[C@@H](C)CC4)n1)C2=O` [Example 6b, 4-[(1)-1-amino-2-methoxyethyl]-6-(1-methylcyclopropyl)-2-{6-[(5S)-5-methyl-6,7-dihydro-5H-pyrrolo[2,1-c][1,2,4]triazol-3-yl]pyridin-2-yl}-2,3-dihydro-1H-pyrrolo[3,4-c]pyridin-1-one], for which, in test [2], the IC50 amounted to 641 nM.
For the compound `CC(C)N(C)c1cc2c(c([C@@H](C)N)n1)CN(c1cccc(-c3nnc4n3[C@@H](C)CC4)n1)C2=O` [Example 21, 4-[(1R)-1-aminoethyl]-2-{6-[(5S)-5-methyl-6,7-dihydro-5H-pyrrolo[2,1-c][1,2,4]triazol-3-yl]pyridin-2-yl}-6-[methyl(propan-2-yl)amino]-2,3-dihydro-1H-pyrrolo[3,4-c]pyridin-1-one], the IC50 in test [2] (Homo sapiens, Jurkat) is 46 nM.
On to `CCCn1cnnc1-c1cccc(N2Cc3c(cc(N(C)C)nc3[C@H](C)N)C2=O)n1` [Example 137, 4-[(1S)-1-aminoethyl]-6-(dimethyl-amino)-2-[6-(4-propyl-4H-1,2,4-triazol-3-yl)pyridin-2-yl]-2,3-dihydro-1H-pyrrolo[3,4-c]pyridin-1-one], for which, in test [2] (Homo sapiens, Jurkat), the IC50 stood at 189 nM.
Still for that read-out and setting: then `CCCn1cnnc1-c1cccc(N2Cc3c(cc(N(C)C)nc3[C@@H](C)N)C2=O)n1` [Example 138, 4-[(1R)-1-aminoethyl]-6-(dimethyl-amino)-2-[6-(4-propyl-4H-1,2,4-triazol-3-yl)pyridin-2-yl]-2,3-dihydro-1H-pyrrolo[3,4-c]pyridin-1-one], with 332 nM.
In the case of `CCCn1cnnc1-c1cccc(N2Cc3c(cc(N4CCC[C@H]4C)nc3[C@@H](N)CC)C2=O)n1` [Example 145, 4-[(1S)-1-aminopropyl]-6-[(2R)-2-methylpyrroli-din-1-yl]-2-[6-(4-propyl-4H-1,2,4-triazol-3-yl)pyridin-2-yl]-2,3-dihydro-1H-pyrrolo[3,4-c]pyridin-1-one], in test [1], the Ki was found to be 0.46 nM.
With `CC[C@@H]1CCc2nnc(-c3cccc(N4Cc5c(cc(N(C)C(C)C)nc5CNC)C4=O)n3)n21` [Example 204, 2-{6-[(5R)-5-ethyl-6,7-dihydro-5H-pyrrolo[2,1-c] [1,2,4]triazol-3-yl]pyridin-2-yl}-4-[(methyl-amino)methyl]-6-[methyl (propan-2-yl)amino]-2,3-dihydro-1H-pyrrolo[3,4-c] pyridin-1-one], in test [1], the Ki turned out to be 1.29 nM.
`CC[C@@H]1CCc2nnc(-c3cccc(N4Cc5c(cc(N(C)C)nc5CNC)C4=O)n3)n21` [Example 207, 6-(dimethyl-amino)-2-{6-[(5R)-5-ethyl-6,7-dihydro-5H-pyrrolo[2,1-c] [1,2,4]triazol-3-yl]pyridin-2-yl}-4-[(methyl-amino)methyl]-2,3-dihydro-1H-pyrrolo[3,4-c] pyridin-1-one]: in test [1], the Ki came out at 2.68 nM.
The same measure, in the same setting: next, `CNCc1nc(N(C)C)cc2c1CN(c1cccc(-c3nnc4n3[C@H](C)CC4)n1)C2=O` [Example 209, 6-(dimethyl-amino)-4-[(methylamino)methyl]-2-{6-[(5R)-5-methyl-6,7-dihydro-5H-pyrrolo[2,1-c] [1,2,4]triazol-3-yl]pyridin-2-yl}-2,3-dihydro-1H-pyrrolo[3,4-c] pyridin-1-one]: 2.11 nM.
